Measurements as given in PubChem BioAssay AID1159559 (GlaxoSmithKline (GSK), 2015).
The source made the active and inactive calls.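 How the source made its calls: active means compounds whose IC50 against parasite growth in infected mouse cells is below 50000 nM; inactive means the rest.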

Test system: T. cruzi Tulahuen in NIH-3T3, beta-gal fluorescence, 4 d
Assay: anti-Chagas amastigote proliferation inhibitors – cell-based (AID 1159559)

Cc1cccc(NS(=O)(=O)c2cnc3sc(C)cn3c2=O)c1
IC50: 1300 nM

O=C(c1cccc(Nc2ncc(-c3ccc4c(c3)OCO4)cn2)c1)N1CCOCC1
IC50: 6300 nM

CCOc1ccc(NC(=O)c2ccc(NC(=O)NC3CCCCC3)cc2)cc1
IC50: 32000 nM

COc1ncc(-c2ccc3nccc(-c4ccncc4)c3c2)cc1NS(=O)(=O)C1CC1
IC50: 320 nM

COc1ccc(Nc2nc(-c3ccccn3)cc(N3CCCC(O)C3)n2)cc1 (stereo not given)
IC50: 630 nM

O=S(=O)(NCC(c1cccnc1)N1CCN(c2ccc(F)cc2)CC1)c1cccs1 (stereo not given)
IC50: 160 nM

O=C(CSc1nnc(-c2ccc3c(c2)OCO3)o1)N(Cc1ccco1)CC(F)(F)F
IC50: 10000 nM

Cc1ccc2ccc(C(Nc3ccccn3)c3cccnc3)c(O)c2n1 (stereo not given)
IC50: 500 nM

CNC(=O)C1Cc2ccccc2N1C(=O)Cc1ccc(F)cc1 (stereo not given)
IC50: > 50000 nM (inactive)

CCN(CC)c1nc(N(C)C)nc2c1CN(Cc1ccccc1)CC2
IC50: 6300 nM

O=C(NCCc1csc(-c2ccc(F)cc2)n1)c1ccco1
IC50: 2000 nM

O=[N+]([O-])c1ccc(-c2nnn(-c3ccc(Cl)cc3)n2)o1
IC50: 250 nM

CC(C(=O)Nc1ccccc1F)N(C)CC(=O)Nc1cccc2ccccc12 (stereo not given)
IC50: 400 nM

COCc1cnc2c(c1SCc1c(F)cccc1Cl)c(=O)n(C)c(=O)n2C
IC50: > 50000 nM (inactive)

Cn1cc(CN2CCN(c3ccc4c(c3)CCN(C(=O)[C@H]3C[C@@H]3c3ccccc3)CC4)CC2)cn1
IC50: 1600 nM

CC(=O)Nc1cccc(Nc2ncnc3nc[nH]c23)c1
IC50: > 50000 nM (inactive)

CC(C)(C)CC(=O)NCCc1csc(-c2ccc(F)cc2)n1
IC50: 1300 nM

O=C(Cn1cnc([N+](=O)[O-])n1)Nc1ccc(Cl)cc1C(=O)c1ccccc1
IC50: 250 nM

COCCn1c(-c2ccccc2)cnc1NCc1ccccc1OC
IC50: 13000 nM

FC(F)(F)c1cc(C2CCCN(Cc3c[nH]c4ccccc34)C2)nc2ncnn12 (stereo not given)
IC50: 1600 nM

O=c1[nH]ccc2ccc(-c3ccncc3)cc12
IC50: 200 nM

CCc1cccc(CC)c1-n1c(SCC(=O)NC(=O)NCc2ccco2)nnc1-c1cccnc1
IC50: 13000 nM

CC(C)S(=O)(=O)c1ccc(-c2cnc(N)c3cc(-c4ccnc(N)n4)ccc23)cc1
IC50: 790 nM

Nc1nc(-c2ccccc2)cc(-c2nc3ncccc3[nH]2)n1
IC50: 3200 nM

CN(C)S(=O)(=O)c1cccc(C(=O)Nc2nc(-c3ccccn3)cs2)c1
IC50: 1300 nM

NC(=O)c1ncc(N[C@@H]2CCCNC2)nc1Nc1cccc(Cl)c1
IC50: 320 nM

O=[N+]([O-])c1ccc(-c2nnn(-c3cccnc3)n2)o1
IC50: 250 nM

O=C1NCc2cccc(Nc3nc(NC4CCC(O)CC4)ncc3Br)c21 (stereo not given)
IC50: 630 nM

O=C(NCc1nnc2n1CCCCC2)c1ccc(-c2ccc(F)cc2)o1
IC50: 1300 nM

O=C(NCCc1cccnc1)c1csc(-c2ccccc2)n1
IC50: 250 nM

CN(CCOc1ccc(Cl)cc1)Cc1nc(N)nc(N(C)C)n1
IC50: 5000 nM

CN(Cc1ccccc1)Cc1nnnn1C1CCN(Cc2ccc(-n3ccnc3)cc2)CC1
IC50: 400 nM

Cc1ccc2sc(NC(=O)Cn3cnc([N+](=O)[O-])n3)nc2c1
IC50: 1300 nM

CN(C)S(=O)(=O)c1ccc(-c2cnc(N)c(-c3nc4ccc(F)cc4[nH]3)c2)cc1
IC50: 1300 nM

O=[N+]([O-])c1cccc(Nc2cncc(-c3ccccc3CO)c2)c1
IC50: 320 nM

Clc1ccc(C(CC2CCCCO2)Cn2cncn2)c(Cl)c1 (stereo not given)
IC50: 400 nM

O=C(CN(c1cccc(C(F)(F)F)c1)S(=O)(=O)c1ccc(Cl)cc1)NCc1ccc(F)c(F)c1
IC50: 790 nM

CCC(=O)Nc1ccccc1C(=O)Nc1ccccn1
IC50: > 50000 nM (inactive)

Cc1cc(C)c(C#N)c(SCC(=O)c2ccc3c(c2)OCO3)n1
IC50: 2000 nM

Cc1cc(-c2cccc3ccccc23)nc2nc(N)nc(N)c12
IC50: 40000 nM

N#Cc1ccccc1S(=O)(=O)N1CCN(C(=O)CNC(=O)c2ccc3c(c2)OCO3)CC1
IC50: 16000 nM

NC(=O)c1cc(NC(=O)c2ccccc2COc2ccccc2)ccc1Cl
IC50: 40000 nM

CC1CN(S(=O)(=O)c2ccc(NC(=O)c3cc(C4CC4)nc4c3cnn4C(C)C)cc2)CC(C)O1 (stereo not given)
IC50: 630 nM

O=S(=O)(c1ccccc1C(F)(F)F)N1CCN(Cc2ccc(-n3ccnc3)cc2)CC1
IC50: 250 nM

Cc1cc(NC(=O)C2CC2)ccc1OC1CCN(Cc2ccco2)CC1
IC50: 16000 nM

O=C(Nc1nc2ccccc2[nH]1)c1ccc2nc[nH]c2c1
IC50: 25000 nM

CCCCN(C(=O)c1ccc(NC(=O)C(C)C)cc1)c1ccccc1
IC50: 20000 nM

COCCn1cnc2cc(NC(=O)C3CCCCC3)cc(C(=O)N3CCc4sccc4C3)c21
IC50: 20000 nM

COc1ccc(NS(=O)(=O)c2cc(NC(=O)Cc3ccc(C)cc3)ccc2N2CCOCC2)cc1
IC50: 2000 nM

COCCn1c(-c2ccc3c(c2)OCO3)cnc1NCc1ccccc1OC
IC50: 7900 nM

COc1ccccc1C(=O)Nc1nnc(-c2ccc3c(c2)OCO3)s1
IC50: 2500 nM

CCCn1c(NC(=O)Cc2ccc(Cl)cc2)nc2ccccc21
IC50: 630 nM

Cc1nc(-c2nc(NCc3ccc(Cl)cc3)c3cccnc3c2O)n[nH]1
IC50: 630 nM

CN(Cc1nc2ccccc2s1)C(=O)C=Cc1cc2ccccc2o1
IC50: 630 nM

O=C(C1CCCCC1)N1CCN(c2nnc(-c3ccccc3)c3ccccc23)CC1
IC50: 1000 nM

COc1ccc(C(=O)Nc2c(C)nn(COc3cccc(C(F)(F)F)c3)c2C)cc1
IC50: 25000 nM

COCc1cc(Nc2ccc(Cl)cc2)nc(-c2ccccn2)n1
IC50: 1600 nM

NC(=O)c1cc(F)ccc1Nc1nc(NC2CCC(O)CC2)ncc1Cl (stereo not given)
IC50: 4000 nM

COc1ccc(-c2cnc(NC(=O)c3ccc(F)cc3)n2C)cc1
IC50: 2500 nM

Cc1ccc(NC(=O)c2ccnc(N3CCCC3)c2)cc1-c1ccsc1C(N)=O
IC50: 13000 nM

CC1(Oc2cncc(Cl)c2)CCN(Cc2cc3ccccc3[nH]2)C1 (stereo not given)
IC50: 1000 nM

Cc1nc(N2CCC(C(=O)N3CCC(O)(c4cccnc4)CC3)CC2)nc2ccc(C(C)C)cc12
IC50: 1600 nM

CCCC(=O)N(Cc1ccccn1)c1nc2ccccc2s1
IC50: 130 nM

CCCCn1c(=O)c2c(N)onc2n(CCCC)c1=O
IC50: 25000 nM

CC(C)Nc1nc(Cl)nc2ccccc12
IC50: 4000 nM

CC(C)(C)C(Cn1ccnc1)NC(=O)c1ccc2nc(C3CC3)oc2c1 (stereo not given)
IC50: 100 nM

COc1ccc(C2CC(c3ccccc3Cl)=NN2C(=O)CNC(=O)C2CCCC2)cc1 (stereo not given)
IC50: 3200 nM

c1ccc(Nc2nc(-c3ccccn3)cc(N3CCOCC3)n2)cc1
IC50: 2000 nM

O=C(COc1ncnc2cc([N+](=O)[O-])ccc12)NC(=O)NC1CCCCC1
IC50: 1300 nM

COc1cc(F)c2ncc(F)c(CCN3CC[C@H](NCc4cc5c(cn4)OCS5)[C@@H](O)C3)c2c1
IC50: 400 nM

O=C(Nc1nc(-c2ccccn2)cs1)C1CCc2ccccc2C1 (stereo not given)
IC50: 2000 nM

O=C1CN(Cc2ccco2)C2CS(=O)(=O)CC2N1c1ccc(Cl)cc1 (stereo not given)
IC50: > 50000 nM (inactive)

CN(C)CCN(C)Cc1ccc(F)cc1NS(=O)(=O)c1ccc(Cl)c(Cl)c1
IC50: 1600 nM

COc1ccc(C(C)(C)C)cc1S(=O)(=O)n1ccnc1
IC50: 130 nM

COc1ccc2ncc(=O)n(CCN3CC[C@H](NCc4ncc(Cl)c5[nH]ncc45)[C@H](O)C3)c2n1
IC50: 4000 nM

COc1ccc(NS(=O)(=O)c2cc(NC(=O)c3ccc([N+](=O)[O-])s3)ccc2OC)cc1
IC50: 63 nM

CN(C)CCOc1ccc(N2CCN(S(=O)(=O)c3ccc(Cl)cc3)CC2)cc1
IC50: 630 nM

O=C(Nc1nc2cc(Cl)ccc2o1)c1cccc(Cl)c1
IC50: 790 nM

O=C(Cc1ccccc1)Nc1[nH]nc2sc(C(=O)NC3CCCC3)cc12
IC50: 7900 nM

Cc1c([N+](=O)[O-])c(C(=O)Nc2sc3c(c2C#N)CCC(C)C3)nn1C (stereo not given)
IC50: 2500 nM

CN(C)c1ccc(-c2cc3nccnc3c(OC[C@H]3CCCNC3)n2)cn1
IC50: 1600 nM

O=C(Nc1cccc(Cl)c1)N1CCCCC1c1cccnc1 (stereo not given)
IC50: 160 nM

COc1ccc2c(Cl)c(C(=O)N3CCC3)sc2c1Cl
IC50: 400 nM

CS(=O)(=O)NC1CCC(Oc2cc3cnccc3cc2-c2ccsc2)CC1 (stereo not given)
IC50: 130 nM

COCc1cc(Nc2ccccc2)nc(-c2ccccn2)n1
IC50: 5000 nM

CNC(=O)C1Cc2ccccc2N1C(=O)Cc1ccccc1 (stereo not given)
IC50: > 50000 nM (inactive)

CCc1cccc(-n2nc(OCC(=O)NC3CCCC3)c3cccnc32)c1
IC50: > 50000 nM (inactive)

Cc1cc2nc(N3CC[C@H]3C(N)=O)nc(Nc3cc(C4CC4)[nH]n3)c2s1
IC50: 6300 nM

NC(=O)c1ccccc1Nc1nc(NC2CCCCC2)nc2[nH]ccc12
IC50: 1000 nM

NC(=O)c1cc(F)ccc1Nc1nc(NC2CCC(O)CC2)ncc1Br (stereo not given)
IC50: 2500 nM

COc1ccc2ncc(F)c(NC(=O)C3(O)CCC(NCc4ccc5c(c4)OCCO5)CC3)c2n1 (stereo not given)
IC50: 160 nM

O=C(COc1ccccc1)Nc1ccccc1C(=O)Nc1nccs1
IC50: > 50000 nM (inactive)

O=C(NCCc1ccn(-c2ccccc2)n1)C1CCCCC1
IC50: 1300 nM

Cc1nn(-c2ccccc2)nc1CNC(=O)CN(Cc1ccccn1)Cc1ccccn1
IC50: 4000 nM

CCN(CC)S(=O)(=O)c1ccc(C(=O)Nc2cc(C)nn2-c2nc(C)c(C)c(=O)[nH]2)cc1
IC50: 630 nM

Cc1cc(NC(=O)CC2CCCCC2)n(-c2nc3c(c(=O)[nH]2)CCC3)n1
IC50: 250 nM

O=c1oc2ccccc2n1C1CCN(Cc2ccccc2-c2cccnc2)CC1
IC50: 500 nM

O=C(c1ccc(OCCCc2cnc[nH]2)cc1)C1CC1
IC50: 320 nM

COc1ccc2ncc(F)c(CCN3CC[C@@H](NC(=O)c4cc5c(s4)CCC5)[C@@H](O)C3)c2n1
IC50: 160 nM

CCOc1cc(NCCCN2CCN(C)CC2)c2ncccc2c1
IC50: 1600 nM

Cc1nn(-c2nc3ccccc3s2)c2c1C(c1ccc(OCC(N)=O)cc1)SCC(=O)N2 (stereo not given)
IC50: 5000 nM

N#Cc1cccc(CN2CCC(c3nc(-c4ccc(C(F)(F)F)nc4)no3)CC2)c1
IC50: 2000 nM

COc1cccc(-c2cc(C(F)(F)F)nc(-n3ccc([N+](=O)[O-])n3)n2)c1
IC50: 400 nM

Fc1ccc(Nc2nc(-c3ccccn3)cs2)cc1
IC50: 2500 nM

CCCc1nc2nc(N)nc(N)c2cc1CC
IC50: 320 nM

C[C@@H](Oc1cc(-n2cnc3ccc(C(O)CO)cc32)sc1C(N)=O)c1ccccc1C(F)(F)F (stereo not given in full)
IC50: 5000 nM

Cc1ccc(CNC2CCN(C[C@@H]3Cn4c(=O)ccc5ccc(=O)n3c54)CC2)cc1F
IC50: 1300 nM

Cc1c(Nc2cc(C3CC3)[nH]n2)ccc(C#N)c1Cl
IC50: 2500 nM

COc1ccc(C2CC(c3ccc(NS(C)(=O)=O)cc3)=NN2C(=O)c2cccs2)cc1OC (stereo not given)
IC50: 25000 nM

CN(C)Cc1ccc(-c2ccc(S(=O)(=O)NCC3CCCO3)c(F)c2)cc1 (stereo not given)
IC50: 1300 nM
